The values that follow come from patent publication US11780841B2, “3,6-methano-1H-pyrrolo[3,2-b]pyridine and 3,6-methano-1H-pyrrolo[3,2-c]pyridine compounds and medicaments using same” (priority 2018, dated 2023).

For the assay, the system named is recombinant rabies virus 1088 strain expressing Gaussia Luciferase (GLuc) (1088/GLuc). Format: cell-based. As to conditions: read-out: Anti-rabies activity.
Regarding `O=C(O)CCN1C[C@H]2C[C@]3(C(=O)NCCO)NC[C@H]2[C@H]1[C@H]3Cc1cccc2ccccc12` [IF-452], the IC50 fell in the range of 10 to 30 µM. For the molecule `CC(C)CNC(=O)[C@@]12C[C@@H]3CN(CCC(=O)O)[C@@H]([C@@H]3CN1)[C@H]2CCc1ccccc1` [IF-454], the IC50 fell in the range of 10 to 30 µM. For the molecule `CC(C)CNC(=O)[C@@]12C[C@@H]3CN(CCC(=O)O)[C@@H]([C@@H]3CN1)[C@H]2Cc1ccc(O)cc1` [IF-455], the IC50 fell in the range of 10 to 30 µM. Consider `CC(C)CC[C@@H]1[C@@H]2[C@@H]3CN[C@@]1(C(=O)NCc1ccc(O)cc1)C[C@@H]3CN2CCC(=O)O` [IF-458], for which the IC50 was 10 to 30 µM. With `CC(C)CCN1C[C@H]2C[C@]3(C(=O)NCc4ccc(O)cc4)NC[C@H]2[C@H]1[C@H]3CCc1ccccc1` [IF-464] the figure was 10 to 30 µM. As for `CC(C)CCN1C[C@H]2C[C@]3(C(=O)NCc4ccc(O)cc4)NC[C@H]2[C@H]1[C@H]3Cc1cccc2ccccc12` [IF-465], the IC50 was in the range of 10 to 30 µM. `CC(C)CCN1C[C@H]2C[C@]3(C(=O)NCc4ccc(O)cc4)NC[C@H]2[C@H]1[C@H]3Cc1ccccc1` [IF-466]: the IC50 lay in the range of 10 to 30 µM. On to `CC(C)CC[C@@H]1[C@@H]2[C@@H]3CN[C@@]1(C(=O)NCc1ccc(O)cc1)C[C@@H]3CN2CCc1ccccc1` [IF-468], for which the IC50 lay in the range of 10 to 30 µM. Turning to `O=C(NCc1ccc(O)cc1)[C@@]12C[C@@H]3CN(CCc4ccccc4)[C@@H]([C@@H]3CN1)[C@H]2Cc1ccccc1` [IF-469], the IC50 was in the range of 10 to 30 µM.

As to `CC(C)C[C@@H]1[C@@H]2[C@@H]3CN[C@@]1(C(=O)NCc1ccc(O)cc1)C[C@@H]3CN2CCc1ccccc1` [IF-470], the IC50 lay in the range of 10 to 30 µM. Consider `O=C(NCc1ccc(O)cc1)[C@@]12C[C@@H]3CN(Cc4cccc5ccccc45)[C@@H]([C@@H]3CN1)[C@H]2Cc1ccccc1` [IF-472], for which the IC50 is less than 5 µM. Take `CC(C)C[C@@H]1[C@@H]2[C@@H]3CN[C@@]1(C(=O)NCc1ccc(O)cc1)C[C@@H]3CN2Cc1cccc2ccccc12` [IF-473]: the IC50 is less than 5 µM. For the molecule `CC(C)CC[C@@H]1[C@@H]2[C@@H]3CN[C@@]1(C(=O)NCc1ccc(O)cc1)C[C@@H]3CN2CC1CCCCC1` [IF-474], the IC50 was less than 5 µM. `O=C(NCc1ccc(O)cc1)[C@@]12C[C@@H]3CN(CC4CCCCC4)[C@@H]([C@@H]3CN1)[C@H]2CCc1ccccc1` [IF-475]: the IC50 lay in the range of 10 to 30 µM. Then `O=C(NCc1ccc(O)cc1)[C@@]12C[C@@H]3CN(CC4CCCCC4)[C@@H]([C@@H]3CN1)[C@H]2Cc1ccccc1` [IF-477], with less than 5 µM. For `CC(C)C[C@@H]1[C@@H]2[C@@H]3CN[C@@]1(C(=O)NCc1ccc(O)cc1)C[C@@H]3CN2CC1CCCCC1` [IF-478], the IC50 is less than 5 µM. `CC(C)CC[C@@H]1[C@@H]2[C@@H]3CN[C@@]1(C(=O)NCc1ccc(O)cc1)C[C@@H]3CN2Cc1ccc(F)cc1` [IF-479]: the IC50 is less than 5 µM. `O=C(NCc1ccc(O)cc1)[C@@]12C[C@@H]3CN(Cc4ccc(F)cc4)[C@@H]([C@@H]3CN1)[C@H]2Cc1ccccc1` [IF-481]: the IC50 fell in the range of 10 to 30 µM. As for `CC(C)C[C@@H]1[C@@H]2[C@@H]3CN[C@@]1(C(=O)NCc1ccc(O)cc1)C[C@@H]3CN2Cc1ccc(F)cc1` [IF-482], the IC50 lay within 10 to 30 µM. Take `O=C(NCCO)[C@@]12C[C@@H]3CN(CC4CCCCC4)[C@@H]([C@@H]3CN1)[C@H]2Cc1ccccc1` [IF-486]: the IC50 fell in the range of 10 to 30 µM. `CC(C)CC[C@@H]1[C@@H]2[C@@H]3CN[C@@]1(C(=O)NCCO)C[C@@H]3CN2Cc1ccc(F)cc1` [IF-490]: the IC50 is 10 to 30 µM.

As for `CC(C)CC[C@@H]1[C@@H]2[C@@H]3CN[C@@]1(C(=O)NCc1ccc(O)cc1)C[C@@H]3CN2Cc1ccccc1` [IF-493], the IC50 is less than 5 µM. Then `O=C(NCc1ccc(O)cc1)[C@@]12C[C@@H]3CN(Cc4ccccc4)[C@@H]([C@@H]3CN1)[C@H]2Cc1ccccc1` [IF-494], with 10 to 30 µM; and `CC(C)CN1C[C@H]2C[C@]3(C(=O)NCc4ccc(O)cc4)NC[C@H]2[C@H]1[C@H]3Cc1cccc2ccccc12` [IF-500], with 10 to 30 µM; and `CC(C)CC[C@@H]1[C@@H]2[C@@H]3CN[C@@]1(C(=O)NC(C)C)C[C@@H]3CN2Cc1ccc(O)cc1` [IF-503], with less than 5 µM.

With `CC(C)NC(=O)[C@@]12C[C@@H]3CN(Cc4ccc(O)cc4)[C@@H]([C@@H]3CN1)[C@H]2Cc1cccc2ccccc12` [IF-504], the IC50 lay in the range of 10 to 30 µM. On to `NC(=O)CCNC(=O)[C@@]12C[C@@H]3CN(CC4CCCCC4)[C@@H]([C@@H]3CN1)[C@H]2Cc1cccc2ccccc12` [IF-536], for which the IC50 was less than 5 µM. With `NC(=O)CCNC(=O)[C@@]12C[C@@H]3CN(Cc4ccc(F)cc4)[C@@H]([C@@H]3CN1)[C@H]2Cc1cccc2ccccc12` [IF-539] the figure was less than 5 µM; with `O=C(NCCc1ccccc1)[C@@]12C[C@@H]3CN(Cc4ccc(O)cc4)[C@@H]([C@@H]3CN1)[C@H]2Cc1cccc2ccccc12` [IF-580], 10 to 30 µM; with `CC(C)NC(=O)[C@@]12C[C@@H]3CN(Cc4cccc5ccccc45)[C@@H]([C@@H]3CN1)[C@H]2Cc1cccc2ccccc12` [IF-596], 10 to 30 µM. On to `O=C(NCCO)[C@@]12C[C@@H]3CN(Cc4cccc5ccccc45)[C@@H]([C@@H]3CN1)[C@H]2Cc1ccccc1` [IF-603], for which the IC50 lay within 10 to 30 µM. As for `CC(C)C[C@@H]1[C@@H]2[C@@H]3CN[C@@]1(C(=O)NCCO)C[C@@H]3CN2Cc1cccc2ccccc12` [IF-604], the IC50 fell in the range of 10 to 30 µM. Then `CC(C)C[C@@H]1[C@@H]2[C@@H]3CN[C@@]1(C(=O)NCCO)C[C@@H]3CN2CC1CCCCC1` [IF-606], with 10 to 30 µM; and `O=C(NCCc1ccccc1)[C@@]12C[C@@H]3CN(CCO)[C@@H]([C@@H]3CN1)[C@H]2Cc1cccc2ccccc12` [IF-610], with 10 to 30 µM; and `CC(C)CCN1C[C@H]2C[C@]3(C(=O)NCCO)NC[C@H]2[C@H]1[C@H]3Cc1cccc2ccccc12` [IF-611], with 10 to 30 µM. Regarding `O=C(NCCO)[C@@]12C[C@@H]3CN(CCc4ccccc4)[C@@H]([C@@H]3CN1)[C@H]2Cc1cccc2ccccc12` [IF-612], the IC50 lay within 10 to 30 µM.

Consider `CC(C)CC[C@@H]1[C@@H]2[C@@H]3CN[C@@]1(C(=O)NCCO)C[C@@H]3CN2Cc1cccc2ccccc12` [IF-613], for which the IC50 was 10 to 30 µM. `O=C(NCCO)[C@@]12C[C@@H]3CN(Cc4cccc5ccccc45)[C@@H]([C@@H]3CN1)[C@H]2Cc1cccc2ccccc12` [IF-614]: the IC50 was in the range of 10 to 30 µM.

Take `O=C(NCCO)[C@@]12C[C@@H]3CN(CC4CCCCC4)[C@@H]([C@@H]3CN1)[C@H]2Cc1cccc2ccccc12` [IF-619]: the IC50 lay within 10 to 30 µM.

For the molecule `O=C(NCCO)[C@@]12C[C@@H]3CN(Cc4ccc(F)cc4)[C@@H]([C@@H]3CN1)[C@H]2Cc1cccc2ccccc12` [IF-620], the IC50 was less than 5 µM. In the case of `O=C(NCCO)[C@@]12C[C@@H]3CN(Cc4ccccc4)[C@@H]([C@@H]3CN1)[C@H]2Cc1cccc2ccccc12` [IF-624], the IC50 is 10 to 30 µM. With `CC(C)CCN1C[C@H]2C[C@]3(C(=O)NCC(C)C)NC[C@H]2[C@H]1[C@H]3CCc1ccccc1` [IF-635] the figure was 10 to 30 µM. With `CC(C)C[C@@H]1[C@@H]2[C@@H]3CN[C@@]1(C(=O)NCc1ccccc1)C[C@@H]3CN2CCc1ccccc1` [IF-639] the figure was less than 5 µM; with `O=C(NCc1ccccc1)[C@@]12C[C@@H]3CN(CCc4ccccc4)[C@@H]([C@@H]3CN1)[C@H]2Cc1ccc(O)cc1` [IF-640], 10 to 30 µM; with `CC(C)CNC(=O)[C@@]12C[C@@H]3CN(CCc4ccccc4)[C@@H]([C@@H]3CN1)[C@H]2Cc1ccccc1` [IF-641], less than 5 µM. Then `CC(C)C[C@@H]1[C@@H]2[C@@H]3CN[C@@]1(C(=O)NCc1ccccc1)C[C@@H]3CN2CC1CCCCC1` [IF-644], with less than 5 µM; and `O=C(NCc1ccccc1)[C@@]12C[C@@H]3CN(CC4CCCCC4)[C@@H]([C@@H]3CN1)[C@H]2Cc1ccc(O)cc1` [IF-645], with 10 to 30 µM. As for `CC(C)CNC(=O)[C@@]12C[C@@H]3CN(CC4CCCCC4)[C@@H]([C@@H]3CN1)[C@H]2Cc1cccc2ccccc12` [IF-646], the IC50 is less than 5 µM. With `O=C(NCc1ccccc1)[C@@]12C[C@@H]3CN(Cc4ccc(F)cc4)[C@@H]([C@@H]3CN1)[C@H]2Cc1ccccc1` [IF-649], the IC50 is less than 5 µM. As for `CC(C)C[C@@H]1[C@@H]2[C@@H]3CN[C@@]1(C(=O)NCc1ccccc1)C[C@@H]3CN2Cc1ccc(F)cc1` [IF-650], the IC50 is less than 5 µM. Then `CC(C)CNC(=O)[C@@]12C[C@@H]3CN(Cc4ccc(F)cc4)[C@@H]([C@@H]3CN1)[C@H]2CCc1ccccc1` [IF-652], with less than 5 µM.

`CC(C)CNC(=O)[C@@]12C[C@@H]3CN(Cc4ccc(F)cc4)[C@@H]([C@@H]3CN1)[C@H]2Cc1ccccc1` [IF-653]: the IC50 lay within 10 to 30 µM. Regarding `CC(C)CNC(=O)[C@@]12C[C@@H]3CN(Cc4ccc(F)cc4)[C@@H]([C@@H]3CN1)[C@H]2CC(C)C` [IF-654], the IC50 is less than 5 µM.

As for `CC(C)CCNC(=O)[C@@]12C[C@@H]3CN(CCO)[C@@H]([C@@H]3CN1)[C@H]2Cc1ccccc1` [IF-656], the IC50 is 10 to 30 µM. Consider `CC(C)CCNC(=O)[C@@]12C[C@@H]3CN(CCc4ccccc4)[C@@H]([C@@H]3CN1)[C@H]2CC(C)C` [IF-657], for which the IC50 was less than 5 µM. For the molecule `CC(C)CCNC(=O)[C@@]12C[C@@H]3CN(CC4CCCCC4)[C@@H]([C@@H]3CN1)[C@H]2Cc1ccccc1` [IF-658], the IC50 is less than 5 µM. For the molecule `CC(C)CCNC(=O)[C@@]12C[C@@H]3CN(CC4CCCCC4)[C@@H]([C@@H]3CN1)[C@H]2CC(C)C` [IF-659], the IC50 fell in the range of 10 to 30 µM.

In the case of `CC(C)CCNC(=O)[C@@]12C[C@@H]3CN(CCO)[C@@H]([C@@H]3CN1)[C@H]2Cc1cccc2ccccc12` [IF-660], the IC50 was in the range of 10 to 30 µM.

Consider `CC(C)CCNC(=O)[C@@]12C[C@@H]3CN(Cc4ccccc4)[C@@H]([C@@H]3CN1)[C@H]2Cc1ccccc1` [IF-665], for which the IC50 is less than 5 µM.

For `CC(C)CNC(=O)[C@@]12C[C@@H]3CN(Cc4ccccc4)[C@@H]([C@@H]3CN1)[C@H]2CCc1ccccc1` [IF-670], the IC50 was less than 5 µM. For `CC(C)CCNC(=O)[C@@]12C[C@@H]3CN(CC(C)C)[C@@H]([C@@H]3CN1)[C@H]2CCc1ccccc1` [IF-673], the IC50 is less than 5 µM. On to `CC(C)CCNC(=O)[C@@]12C[C@@H]3CN(CC(C)C)[C@@H]([C@@H]3CN1)[C@H]2Cc1cccc2ccccc12` [IF-674], for which the IC50 lay within 10 to 30 µM.
